Results taken from US8614222B2, “Methods of preventing and treating low bone mass diseases” (The Trustees of Columbia University in the City of New York, priority 2008, dated 2013).

Experiments:
Format in all cases: in vivo
peripheral serotonin = assay: Peripheral serotonin levels in wild-type mice (Example 11); conditions: 5 mice per compound
Experimental: Serotonin serum levels were quantified using immunoassay kits from Fitzgerald (Serotonin) and serotonin levels in the different regions of the brain were quantified by HPLC method as described previously (Mann et al., 1992, Arch. Gen. Psychiatry 49:442-446).
The following three compounds were tested for their ability to effect peripheral serotonin levels in wild-type mice:
Also tested as a negative control was vehicle alone. Each compound as well as vehicle was administered to 5 mice and the resulting peripheral serotonin levels were as follows: […]

brain serotonin [1] = assay: Brain serotonin content in wild-type mice (HPLC); conditions: WT mice, 250 mg/kg orally
Experimental: FIG. 15. HPLC analysis of serotonin content in the brain of wild-type mice that received vehicle or LP-533,401 (250 mg/kg, orally) for 1 day.
(§1) Blood samples were collected from mice and rats through cardiac puncture under isoflurane anesthesia, kept on ice for 5 min, and centrifuged at 13,000 rpm for 10 min at 4° C. Serum samples were stored at −80° C. until hormonal analyses were performed. Serum serotonin levels were quantified by ELISA (Serotonin kit, Fitzgerald) while serotonin levels in brain regions were quantified by HPLC as described previously (Mann et al., 1992, Arch. Gen. Psychiatry 49:442-446). Serum levels of total deoxypyridinoline (DPD) cross-links was measured using the Merta tDPD kit (Quidel corp. Sandiago, Calif.) and Osteocalcin using Rat and Mouse Ocn IRMA kit.

serum serotonin = assay: Serum serotonin levels in ovariectomized mice; conditions: OVX mice
Experimental: (§2) Six-week-old wild-type virgin female mice were purchased from the Jackson Laboratories and subjected to either bilateral ovariectomy or a sham operation after a few days of acclimatization to the animal facility post-arrival. Ovariectomy was performed under isofluorane anesthesia through dorsal, subrenal incision. In the first experiment, mice were treated from day 1 post-ovariectomy for 4 weeks with LP-533,401 (1, 10, 100 or 250 mg/kg/day) or vehicle. In the second experiment, mice were treated for 4 weeks from 2 to 6-weeks post-ovariectomy with LP-533,401 (250 mg/kg/day) or vehicle. In the third set of experiments, mice were treated for 6 weeks from 6 to 12-weeks post-ovariectomy with LP-533,401 (250 mg/kg/day) or vehicle. […]
as §1, with “Serum samples were stored at −80° C. until hormonal analyses were performed.” left out

brain serotonin [2] = assay: Brain serotonin content in ovariectomized mice; conditions: OVX mice
Experimental: as §2
as §1, with “Serum samples were stored at −80° C. until hormonal analyses were performed.” left out

ovariectomized mice = assay: Gastrointestinal homeostasis and blood coagulation in ovariectomized mice; conditions: OVX mice, 6 weeks
ovariectomized rats = assay: Curative regimen in ovariectomized rats (histomorphometry, μCT, biomechanical testing); conditions: OVX rats
Experimental: Virgin female Sprague-Dawley rats (National Institute of Nutrition, Hyderabad, India) were obtained at 3 months of age and allowed to acclimate to the facility for 1 week before study initiation and surgical procedures. They were housed under a 12 hour:12 hour light:dark cycle and provided throughout the study with water and PMI (Purina Mills, Incorporated) Certified Rodent Laboratory Chow. Rats were subjected to either bilateral ovariectomy or a sham operation under isoflurane anesthesia. […] The rats were divided into two groups of sham-operated and ovariectomized animals and left untreated for 3 weeks to allow bone loss to occur. One group of sham and one group of ovariectomized rats (n=10/group) were killed as baseline controls to determine bone loss before the start of LP-533,401 or PTH administration. The remaining animals (n=5-10/group) received vehicle or LP-533,401 (250 mg/kg/day) by gavage, or recombinant human PTH (80 ug/kg) by daily subcutaneous (s.c.) injection for 4 weeks. The 80 ug/kg dose of PTH was selected as being optimal for reversal of ovariectomy-induced bone loss in rats based on previous studies, while the dose of LP-533,401 was selected based on the effective dose for bone loss-reversal observed in mice experiments. To label bone-forming surfaces, animals were injected s.c. with calcein (8 mg/kg) at 10 and 3 days before death. Animals were killed by an overdose of Isofluorane anesthesia. The right tibia and lumbar vertebra 2 (L2) were collected, cleaned of excess soft tissue, fixed overnight in 10% formalin and processed for μCT or histomorphometric analysis. The right femur and L3 were cleaned of excess tissue and stored at −20° C. prior to biomechanical testing.
Bone histomorphometry was performed as previously described (Duey et al., 2000, Cell 100:197-207; Takeda et al., 2002, Cell 111:305-317; Parfitt et al., 1987, J. Bone Miner. Res. 2:595-610). Briefly, lumbar vertebrae were dissected, fixed for 24 hr in 10% formalin, dehydrated in graded ethanol series, and embedded in methyl methacrylate resin according to standard protocols (Parfitt et al., 1987, J. Bone Miner. Res. 2:595-610). Von Kossa/Von Gieson staining was performed using 7 μm sections for bone volume over tissue volume (BV/TV) measurement. Bone formation rate (BFR) was analyzed by the calcein double-labeling method (Ducy et al., 2000, Cell 100:197-207). Calcein (Sigma Chemical Co., St. Louis, Mo.) was dissolved in calcein buffer (0.15 M NaCl, 2% NaHCO3) and injected twice at 0.125 mg/g body weight on day 1 and 4, and then mice were killed on day 6. Unstained 4 μm sections were used for bone formation rate (BFR) measurements. For the analysis of parameters of osteoblasts and osteoclasts, 4 μm sections were stained with toluidine blue and tartrate-resistant acid phosphatase (TRAP), respectively (2). Histomorphometric analyses were performed using the Osteomeasure Analysis System (Osteometrics, Atlanta, Ga.).
Trabecular bone architecture of proximal tibia was assessed using a micro computed tomography (μCT) system (VivaCT 40, SCANCO Medical AG, Bassersdorf, Switzerland). Tibia bone specimen was stabilized with gauze in a 2 ml centrifuge tube filled with 70% ethanol and fastened in the specimen holder of the μCT scanner. One hundred μCT slices, corresponding to a 1.05 mm region distal from the growth plate, were acquired at an isotropic spatial resolution of 10.5 μm. A global thresholding technique was applied to binarize gray-scale μCT images where the minimum between the bone and bone marrow peaks in the voxel gray value histogram was chosen as the threshold value. The trabecular bone compartment was segmented by a semi-automatic contouring method and subjected to a model-independent morphological analysis (Hildebrand et al., 1999, J. Bone Miner. Res. 14:1167-1174) by the standard software provided by the manufacture of the μCT scanner. […]

[3] = 250 mg/kg/day for 4 weeks from week 2 post-ovariectomy
[4] = long bones, μCT, all doses tested
[5] = LP-533,401 250 mg/kg/day, PTH 80 μg/kg/day

## Nc1nc(OC(c2ccc(-c3cccc(F)c3)cc2)C(F)(F)F)cc(-c2ccc(C[C@H](N)C(=O)O)cc2)n1 (stereo partly drawn) [LP-533401, (2S)-2-amino-3-(4-(2-amino-6-(2,2,2-trifluoro-1-(3′-fluorobiphenyl-4-yl)ethoxy)pyrimidin-4-yl)phenyl)propanoic acid]
Peripheral serotonin
  Peripheral serotonin (ng/ml) (mean ± SEM): 88.56 ± 12.93 ng/mL
Brain serotonin [1]
  brain serotonin content: no change
Serum serotonin; [3]
  decrease of serum serotonin levels: 80%
Serum serotonin; day 1 to 28 post-ovariectomy
  serum serotonin levels: decreased
Brain serotonin [2]; [3]
  brain serotonin content: unaffected
Brain serotonin [2]; day 1 to 28 post-ovariectomy
  brain serotonin content: unaffected
Ovariectomized mice
  coagulation rates versus vehicle: similar
Ovariectomized mice; up to 250 mg/kg/day
  colonic mobility: None of these parameters were affected
  gastric emptying: None of these parameters were affected
  total gastrointestinal transit: None of these parameters were affected
Ovariectomized rats
  number of osteoclasts per bone surface (OcS/BS) versus untreated ovariectomized rats: similar
Ovariectomized rats; given 3 or 12 weeks post-ovariectomy for 4 weeks, even at 25 mg/kg/day
  ovariectomy-induced bone loss, histomorphometric analysis of vertebra: fully rescued
Ovariectomized rats; long bones, μCT
  efficiency compared with PTH (80 μg/kg/day, s.c.): as efficient as the PTH regimen
Ovariectomized rats; [4]
  trabecular spacing (Tb.Sp*): reduced
  trabecular thickness (Tb.Th*): significantly increased
Ovariectomized rats; long bones, μCT, all doses tested (25, 100, 250 mg/kg/day)
  trabecular number (Tb.N*): significantly increased
Ovariectomized rats; vertebra
  bone formation rate: significant increase
  osteoblast number: significant increase
Ovariectomized rats; μCT
  bone mass in long bones versus vehicle-treated controls: increasing, in a dose-dependent manner
Ovariectomized rats; [5]
  decrease in cortical thickness at the femur mid-shaft: equally rescued
  maximal load (femur, vertebra): restored to values seen in sham-operated rats
  stiffness (femur, vertebra): restored to values seen in sham-operated rats
